Assay results as given in article PMC6923382, “Small molecules that inhibit TNF signalling by stabilising an asymmetric form of the trimer” (Nature Communications, 2019).
Where “and” joins values, the source holds several entries; their conditions need not be identical. Equal values may be shown once. Entries after “also recorded” stand apart in the source; their conditions may differ.

What was measured:
TNF = TNF (Homo sapiens, UniProt P01375); test: Thermal denaturation assay of thermal stability; type: binding; design: stabilise an asymmetrical form of the soluble TNF trimer
Procedure: (§1) A fluorescence probed thermal denaturation assay was performed to assess the effect of the compounds on the thermal stability of TNF (or other members of the TNF family) as a measure of compound binding. The reaction mixture contained 5 µL of 30× SYPRO® Orange dye (Invitrogen) and 5 µL of TNF (at 1 mg/mL), 37.5 μL PBS, pH 7.4 and 2.5 μL of compound (at 2 mM in DMSO). The mixture (10 µL) was dispensed in quadruplicate into a 384 PCR optical well plate and was run on a 7900HT Fast Real-Time PCR System ([…]). The PCR System heating device was set at 20 °C to 99 °C with a ramp rate of 1.1 °C min^−1; fluorescence changes in the wells were monitored by a CCD device. The fluorescence intensity increase was plotted as a function of temperature and the Tm calculated as the midpoint of this denaturation curve (determined as the point of inflection).

Mouse TNF superfamily = test: Thermal denaturation, mouse TNF superfamily; type: binding; conditions: 100 µM compound, 0.1 mg/mL sample; single experiment
Procedure: as §1
(§2) Compound based thermal stability increase (oC)
(§3) 100 µM compound 0.1 mg/mL sample […]
(§4) compared to human TNF. Human proteins were provided through a collaboration with Beryllium. Data from a single experiment. […]
(§5) compared to mouse TNF. Mouse proteins were purchased from R&D Systems. (Note: No Tm for Lymphotoxin (LTa) was detected in this assay making a change in Tm unmeasurable).
(§6) Data from a single experiment.
(§7) (also on this page, place not known: 16.0Thermal 10Thermal stability difference (oC) stability increase (oC))

mouse TNF = target: T1, mouse TNF (Mus musculus, UniProt P06804); test: TNF reporter gene assay HEK-293, mouse TNF; type: cell-based; conditions: HEK-293 NF-kB reporter gene assay
T1 construct: stabilise an asymmetrical form of the soluble TNF trimer
T1 sequence (P06804 80-235 limits assumed): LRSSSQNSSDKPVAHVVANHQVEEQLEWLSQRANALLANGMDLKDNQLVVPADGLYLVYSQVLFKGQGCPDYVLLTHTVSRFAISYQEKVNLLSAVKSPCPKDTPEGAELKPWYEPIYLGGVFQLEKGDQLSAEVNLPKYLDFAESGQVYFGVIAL
Procedure: (§8) Stimulation of HEK-293 cells by TNF leads to activation of the NF-κB pathway. The HEK-Blue^TM CD40L SEAP (secreted embryonic alkaline phosphatase) reporter cell line used to determine TNF activity (InvivoGen, #hkb-CD40, cells were described as mycoplasma free when purchased and were tested using Mycoalert [Lonza] after each batch of assay vial preparation). Compounds were titrated in DMSO and pre-incubated with TNF at a concentration giving half maximal response (10 pM for human or 20 pM for mouse) or the anti-human TNFR1 agonist antibody (R&D Systems. #AF 225) for 1 h. Cells were added to the compound/stimulus mixture and further incubated for 18 h. SEAP was measured using the colorimetric substrate HEK-Blue Detect^TM or QUANTI-Blue^TM from InvivoGen. Percentage inhibitions for compound dilutions were calculated between a DMSO control and maximum inhibition (by excess anti-TNF biologic, or NF-κB inhibitor–TPCA-1 [Tocris #2559, R&D Systems]). The IC50 was determined as the point of inflexion between the fitted minimum and maximum of the compound dose response curve, calculated using 4PL fitted curve. Mean IC50s are reported as a mean of at least two experiments. Dose response curves for TNF and the anti-human TNFR1 agonist antibody are shown in Supplementary Fig. 9.

[1] = Dynamic light scattering (colloidal aggregation); type: physicochemical; conditions: 10 μM; no detergent; 25°C; n=5
Procedure: Dynamic light scattering (DLS) experiments have been performed with compounds […]
baseline control and positive control (miconazole at 100 μM) were included. The radius data […]
compound in the absence of detergent.
DLS data (Malvern Nano ZS). Each sample (150 μl) was measured 5 times in a low volume disposable sizing cuvette at 25°C using 173º non-invasive backscatter (NIBS). […]

[2] = system: zymosan-induced neutrophil recruitment; test: Zymosan induced neutrophil recruitment in vivo; design: species or system mouse; conditions: for percent over bar (inhibition of zymosan-induced neutrophil recruitment): Zymosan 1 µg per mouse i.p.; for CD45+ GR-1+ cells/mL in the peritoneal cavity: zymosan, individual mice
Procedure: Zymosan (R&D Systems) was administered by intraperitoneal injection at a concentration of 1 µg per mouse in PBS (100 µL). […] Four hours after the zymosan challenge, mice were sacrificed and the peritoneal cavity lavaged with 3 mL of FACS buffer. An aliquot (0.3 mL) of lavage fluid was used to assess the number of CD45^+GR1^+ cells by flow cytometry. Briefly, the cells were treated with ACK lysis buffer, washed and suspended in FACS buffer prior to staining with FITC anti-mouse CD45 and PE anti-mouse GR1 (BD Biosciences). Data are shown as mean ± standard error of the number of CD45^+GR-1^+ cells. Statistical significance (*p < 0.05, **p < 0.01, ***p < 0.001 and ****p < 0.0001) was determined using one-way ANOVA with Dunnett’s multiple comparison test.

[3] = system: NF-κB stimulated by the TNFR1 agonist antibody; test: HEK-293 reporter gene assay, anti-TNFR1 agonist antibody stimulus; type: cell-based, human; conditions: agonist antibody 0.3 μg/mL; compound up to 10 µM
Procedure: as §8

human TNF superfamily = test: Thermal denaturation, human TNF superfamily; type: binding; conditions: 100 µM compound, 0.1 mg/mL sample; single experiment
Procedure: as §1, §2, §3, §4, §5, §6, §7

Sequence of TNF (P01375 77-233 limits assumed): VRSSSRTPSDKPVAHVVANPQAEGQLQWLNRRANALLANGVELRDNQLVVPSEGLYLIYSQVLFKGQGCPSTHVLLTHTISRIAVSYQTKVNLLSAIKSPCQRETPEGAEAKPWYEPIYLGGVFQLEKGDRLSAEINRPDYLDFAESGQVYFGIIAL

Cc1ccc(C)c(Cn2c(C(O)c3ccncc3)nc3ccc(-c4cnn(C)c4)cc32)c1 (centres unmarked) [UCB-9260]
Tm difference (hTNF + compound) - (hTNF+DMSO) (TNF; DMSO 5%): 17.3 °C | Tm (mean ± SD) (TNF; hTNF + DMSO (5%) + compound, n=4 replicates): 78.0 ± 0.7 °C | Tm1 Average (TNF; inhouse hTNF 5% DMSO + compound, 4 wells): 78 °C | Unreviewed - Tm1 (TNF; single wells, inhouse hTNF 5% DMSO + compound, listed as 1449260-000, in °C): 77.1 and 77.9 and 78.1 and 78.7 | change in Tm of other mouse TNF superfamily members (Mouse TNF superfamily): negligible effect | IC50 (mouse TNF): 95 nM | colloidal aggregation (DLS radius) [1]: no evidence of colloidal aggregation | percent over bar (inhibition of zymosan-induced neutrophil recruitment) ([2]; 10 mg/kg p.o., 4 hours, mean ± s.e.): 11±14% | CD45+ GR-1+ cells/mL in the peritoneal cavity ([2]; 10mg/kg): 195599.4 cells/mL and 255505.0 cells/mL and 196418.3 cells/mL and 192743.4 cells/mL and 219374.0 cells/mL and 134444.4 cells/mL and 127176.3 cells/mL and 228610.3 cells/mL | percent over bar (inhibition of zymosan-induced neutrophil recruitment) ([2]; 30 mg/kg p.o.): 10±16% | CD45+ GR-1+ cells/mL in the peritoneal cavity ([2]; 30mg/kg): 308000.0 cells/mL and 169293.1 cells/mL and 102620.5 cells/mL and 226129.3 cells/mL and 167710.1 cells/mL and 175546.4 cells/mL and 66491.2 cells/mL and 345608.1 cells/mL | percent over bar (inhibition of zymosan-induced neutrophil recruitment) ([2]; 100 mg/kg p.o.): 51±10% | CD45+ GR-1+ cells/mL in the peritoneal cavity ([2]; 100mg/kg): 80477.6 cells/mL and 108548.6 cells/mL and 137240.9 cells/mL and 57696.4 cells/mL and 231185.2 cells/mL and 83347.1 cells/mL and 39698.9 cells/mL and 112119.6 cells/mL | percent over bar (inhibition of zymosan-induced neutrophil recruitment) ([2]; 300 mg/kg p.o.): 64±4% | CD45+ GR-1+ cells/mL in the peritoneal cavity ([2]; 300mg/kg): 106121.8 cells/mL and 78357.0 cells/mL and 70745.1 cells/mL and 93070.9 cells/mL and 117333.3 cells/mL and 57439.3 cells/mL and 69649.3 cells/mL and 44069.8 cells/mL | inhibition of NF-κB stimulated by TNFR1 agonist antibody [3]: no inhibition | change in Tm of other human TNF superfamily members (human TNF superfamily): negligible effect; also recorded: No other protein tested showed a significant change in Tm
